Data set [1] concerns the target T1, full length human Src (Met1-Leu536) (Homo sapiens, UniProt P12931).
T1 construct: full length human Src (Met1-Leu536); GST (N); purchased Cell Signaling Technologies; host or cells: baculovirus expression system
Briefly: HTScan tyrosine kinase assay, Src. It counts as biochemical. The protocol: (§1) The proteins are purified by one-step affinity chromatography using glutathione-agarose. An anti-phosphotyrosine monoclonal antibody, P-Tyr-100, is used to detect phosphorylation of biotinylated substrate peptides (Abl1 and Src, Biotin-Signal Transduction Protein (Tyr160); c-Kit, Biotinylated-KDR (Tyr996); PDGFR-β, Biotinylated-FLT3 (Tyr589)). […] Data are plotted using GraphPad Prism (v4.0a) and IC50's are calculated using a sigmoidal dose response curve fitting algorithm.
(§2) Each assay is setup as follows: 100 μl of 10 mM ATP is added to 1.25 ml 6 mM substrate peptide. […] The enzyme is immediately transferred from −80° C. to ice. The enzyme is allowed to thaw on ice. […] 25 μl of 2× ATP/substrate cocktail is added to 25 μl/well preincubated reaction cocktail/compound. The reaction plate is incubated at room temperature for 30 minutes. […] 100 μl/well primary antibody is added and the mixture is incubated at room temperature for 60 minutes. The plates are again washed three times with 200 μl/well PBS/T. Europium labeled anti-mouse IgG is diluted 1:500 in PBS/T with 1% BSA. 100 μl/well diluted antibody is added and the mixture is incubated at room temperature for 30 minutes. The plate is washed five times with 200 μl/well PBS/T. 100 μl/well DELFIA® Enhancement Solution is added and the mixture is incubated at room temperature for 5 minutes. 615 nm fluorescence emission is detected using an appropriate Time-Resolved Plate Reader.

Data set [2] deals with T2, human PDGFR-beta (Arg561-Leu1106) (Homo sapiens, UniProt P09619).
T2 construct: fragment (Arg561-Leu1106); GST (N); His6 (N); thrombin cleavage site (N); purchased Cell Signaling Technologies; host or cells: baculovirus expression system
T2 sequence (P09619 561-1106): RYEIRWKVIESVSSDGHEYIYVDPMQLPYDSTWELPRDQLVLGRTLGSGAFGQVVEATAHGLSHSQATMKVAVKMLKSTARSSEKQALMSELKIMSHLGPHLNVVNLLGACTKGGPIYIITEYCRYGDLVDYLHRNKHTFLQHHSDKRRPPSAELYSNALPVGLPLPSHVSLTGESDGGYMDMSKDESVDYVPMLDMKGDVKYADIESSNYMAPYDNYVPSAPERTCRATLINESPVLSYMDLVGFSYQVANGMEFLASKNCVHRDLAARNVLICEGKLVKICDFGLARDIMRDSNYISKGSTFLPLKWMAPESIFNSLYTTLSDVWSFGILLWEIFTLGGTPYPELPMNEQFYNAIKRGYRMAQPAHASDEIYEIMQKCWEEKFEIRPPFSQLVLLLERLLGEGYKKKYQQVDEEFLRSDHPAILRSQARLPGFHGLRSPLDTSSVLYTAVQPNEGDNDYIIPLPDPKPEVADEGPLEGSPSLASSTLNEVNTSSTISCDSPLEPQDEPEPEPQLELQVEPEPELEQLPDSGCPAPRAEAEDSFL
Briefly: HTScan tyrosine kinase assay, PDGFR-beta. It counts as biochemical. The following applies: read-out: PDGFb IC50. As to the method:
as §1, §2

Data set [3] concerns the target T3, human Abl1 (Pro118-Ser553) (Homo sapiens, UniProt P00519).
T3 construct: human Abl1 (Pro118-Ser553); GST (N); purchased Cell Signaling Technologies; host or cells: baculovirus expression system
T3 sequence (P00519 118-553): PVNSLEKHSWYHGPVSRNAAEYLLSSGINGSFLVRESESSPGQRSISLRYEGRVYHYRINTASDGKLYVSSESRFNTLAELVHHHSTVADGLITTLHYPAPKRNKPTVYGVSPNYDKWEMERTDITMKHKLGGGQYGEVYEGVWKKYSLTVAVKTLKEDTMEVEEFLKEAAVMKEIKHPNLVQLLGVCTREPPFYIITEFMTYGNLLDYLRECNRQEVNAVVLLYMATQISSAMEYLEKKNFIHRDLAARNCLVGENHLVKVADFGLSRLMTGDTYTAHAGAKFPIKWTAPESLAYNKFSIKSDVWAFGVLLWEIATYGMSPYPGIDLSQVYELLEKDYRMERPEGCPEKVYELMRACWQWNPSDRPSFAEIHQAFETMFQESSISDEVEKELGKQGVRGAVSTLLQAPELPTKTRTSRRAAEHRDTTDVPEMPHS
Kind of data set: HTScan tyrosine kinase assay, Abl1. It counts as biochemical. The following applies: read-out: ABL IC50. As to the method:
as §1, §2

In a further data set the test system is HDAC. Kind of data set: HDAC fluorimetric assay kit (AK-500, Biomol), HeLa nuclear extract. The class given is biochemical. As to the method: HDAC inhibitors is screened using an HDAC fluorimetric assay kit (AK-500, Biomol, Plymouth Meeting, Pa.).
Each assay is setup as follows: Defrost all kit components and kept on ice until use. […] Prepare dilutions of Trichostatin A (TSA, positive control) and tested compounds in assay buffer (5× of final concentration). Dilute Fluor de Lys™ Substrate in assay buffer to 100 uM (50 fold=2× final). Dilute Fluor de Lys™ developer concentrate 20-fold (e.g. 50 μl plus 950 μl Assay Buffer) in cold assay buffer. Second, dilute the 0.2 mM Trichostatin A 100-fold in the 1× Developer (e.g. 10 μl in 1 ml; final Trichostatin A concentration in the 1× Developer=2 μM; final concentration after addition to HDAC/Substrate reaction=1 μM). Add Assay buffer, dilute trichostatin A or test inhibitor to appropriate wells of the microtiter plate. Add diluted HeLa extract or other HDAC sample to all wells except for negative controls.

Data set [4] addresses T4, human c-Kit (Thr544-Val976) (Homo sapiens, UniProt P10721).
T4 construct: human c-Kit (Thr544-Val976); GST (N); purchased Cell Signaling Technologies; host or cells: baculovirus expression system
Kind of data set: HTScan tyrosine kinase assay, c-Kit. It counts as biochemical. The protocol:
as §1, §2

A further data set addresses Lyn (Homo sapiens, UniProt P07948). Kind of data set: Lyn assay (Table B). The class given is biochemical.
Another data set concerns the target Lck (Homo sapiens, UniProt P06239). Kind of data set: Lck assay (Table B). The class given is biochemical.

Where only a bound is given, the exact number is not on record here.

Sequence of Lck (P06239 whole entry, species assumed): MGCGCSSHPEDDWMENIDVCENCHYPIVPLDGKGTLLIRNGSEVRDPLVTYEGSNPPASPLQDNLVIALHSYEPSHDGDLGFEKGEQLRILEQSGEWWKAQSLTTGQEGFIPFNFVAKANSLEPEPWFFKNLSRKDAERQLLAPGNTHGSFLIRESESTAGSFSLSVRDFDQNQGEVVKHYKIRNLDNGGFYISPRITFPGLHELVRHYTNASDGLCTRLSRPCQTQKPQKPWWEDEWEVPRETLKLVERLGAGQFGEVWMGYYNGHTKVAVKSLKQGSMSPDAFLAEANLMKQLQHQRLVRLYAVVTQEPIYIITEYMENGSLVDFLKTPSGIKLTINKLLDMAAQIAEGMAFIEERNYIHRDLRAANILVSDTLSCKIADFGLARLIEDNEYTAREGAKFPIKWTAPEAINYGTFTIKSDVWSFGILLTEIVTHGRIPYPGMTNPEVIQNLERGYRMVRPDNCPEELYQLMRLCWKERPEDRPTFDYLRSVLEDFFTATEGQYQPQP
T4 sequence (P10721 544-976): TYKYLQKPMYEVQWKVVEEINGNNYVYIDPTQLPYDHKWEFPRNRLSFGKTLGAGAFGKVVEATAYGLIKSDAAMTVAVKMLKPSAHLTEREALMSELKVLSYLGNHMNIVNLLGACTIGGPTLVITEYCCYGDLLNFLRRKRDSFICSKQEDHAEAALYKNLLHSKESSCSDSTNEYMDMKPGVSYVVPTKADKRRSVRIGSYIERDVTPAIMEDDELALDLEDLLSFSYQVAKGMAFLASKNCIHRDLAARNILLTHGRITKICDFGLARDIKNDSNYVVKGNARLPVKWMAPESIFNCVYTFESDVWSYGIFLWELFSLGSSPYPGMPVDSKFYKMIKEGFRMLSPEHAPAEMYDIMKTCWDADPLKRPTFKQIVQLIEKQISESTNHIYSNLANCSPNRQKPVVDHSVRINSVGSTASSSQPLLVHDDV
T1 sequence (P12931 whole entry): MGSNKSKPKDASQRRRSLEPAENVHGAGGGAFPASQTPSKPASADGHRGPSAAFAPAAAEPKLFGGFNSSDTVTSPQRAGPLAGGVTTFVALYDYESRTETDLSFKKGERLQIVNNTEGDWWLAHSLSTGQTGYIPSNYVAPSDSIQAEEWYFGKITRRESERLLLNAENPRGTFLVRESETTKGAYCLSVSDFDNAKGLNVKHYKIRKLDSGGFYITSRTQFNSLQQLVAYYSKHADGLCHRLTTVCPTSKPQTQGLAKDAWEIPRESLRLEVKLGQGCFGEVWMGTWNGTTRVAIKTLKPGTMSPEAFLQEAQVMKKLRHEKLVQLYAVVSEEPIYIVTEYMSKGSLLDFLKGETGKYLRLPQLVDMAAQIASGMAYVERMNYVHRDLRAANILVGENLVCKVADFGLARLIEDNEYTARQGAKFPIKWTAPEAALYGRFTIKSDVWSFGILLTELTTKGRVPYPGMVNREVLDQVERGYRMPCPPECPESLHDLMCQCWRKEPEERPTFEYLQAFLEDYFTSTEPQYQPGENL
Sequence of Lyn (P07948 whole entry, species assumed): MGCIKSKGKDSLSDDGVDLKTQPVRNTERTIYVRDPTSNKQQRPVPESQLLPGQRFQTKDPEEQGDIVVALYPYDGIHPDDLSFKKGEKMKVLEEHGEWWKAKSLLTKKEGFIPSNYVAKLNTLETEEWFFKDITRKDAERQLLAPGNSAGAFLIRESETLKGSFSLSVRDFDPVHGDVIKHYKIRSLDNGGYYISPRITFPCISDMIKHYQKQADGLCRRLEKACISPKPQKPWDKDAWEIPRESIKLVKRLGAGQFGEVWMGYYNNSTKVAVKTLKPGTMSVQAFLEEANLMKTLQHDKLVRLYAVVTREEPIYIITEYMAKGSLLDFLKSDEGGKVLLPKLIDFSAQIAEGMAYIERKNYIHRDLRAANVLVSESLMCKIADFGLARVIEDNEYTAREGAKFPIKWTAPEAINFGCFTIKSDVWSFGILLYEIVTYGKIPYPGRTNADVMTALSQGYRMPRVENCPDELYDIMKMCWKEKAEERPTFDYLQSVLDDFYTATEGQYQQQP

As usually defined, the IC50 is the concentration that inhibits the measured activity by half. With `Cc1nc(Nc2ncc(C(=O)Nc3c(C)cccc3Cl)s2)cc(N2CCN(CC(=O)NO)CC2)n1` [Compound 1, N-(2-chloro-6-methylphenyl)-2-(6-(4-(2-(hydroxyamino)-2-oxoethyl)piperazin-1-yl)-2-methylpyrimidin-4-ylamino)thiazole-5-carboxamide], the IC50 in data set [1] was less than 100 nM; in data set [2] it was less than 100 nM; in data set [3], less than 100 nM; in the data set with HDAC, 1000 to 10000 nM.
Take `Cc1nc(Nc2ncc(C(=O)Nc3c(C)cccc3Cl)s2)cc(N2CCN(CCC(=O)NO)CC2)n1` [Compound 2, N-(2-Chloro-6-methylphenyl)-2-(6-(4-(3-(hydroxyamino)-3-oxopropyl)piperazin-1-yl)-2-methylpyrimidin-4-ylamino)thiazole-5-carboxamide]: the IC50 in data set [1] is less than 100 nM; in data set [2], less than 100 nM; in data set [3], less than 100 nM; in the data set with HDAC it was 1000 to 10000 nM.
In the case of `Cc1nc(Nc2ncc(C(=O)Nc3c(C)cccc3Cl)s2)cc(N2CCN(CCCC(=O)NO)CC2)n1` [Compound 3, N-(2-chloro-6-methylphenyl)-2-(6-(4-(4-(hydroxyamino)-4-oxobutyl)piperazin-1-yl)-2-methylpyrimidin-4-ylamino)thiazole-5-carboxamide], the IC50 in data set [1] is less than 100 nM; in data set [3], less than 100 nM; in the data set on HDAC it was 1000 to 10000 nM.
Turning to `Cc1nc(Nc2ncc(C(=O)Nc3c(C)cccc3Cl)s2)cc(N2CCN(CCCCC(=O)NO)CC2)n1` [Compound 4, N-(2-chloro-6-methylphenyl)-2-(6-(4-(5-(hydroxyamino)-5-oxopentyl)piperazin-1-yl)-2-methylpyrimidin-4-ylamino)thiazole-5-carboxamide], the half-maximal inhibitory concentration (IC50) is less than 100 nM in data set [1], less than 100 nM in data set [2], less than 100 nM in data set [3] and 100 to 1000 nM in the data set with HDAC.
For `Cc1nc(Nc2ncc(C(=O)Nc3c(C)cccc3Cl)s2)cc(N2CCN(CCCCCC(=O)NO)CC2)n1` [Compound 5, N-(2-chloro-6-methylphenyl)-2-(6-(4-(6-(hydroxyamino)-6-oxohexyl)piperazin-1-yl)-2-methylpyrimidin-4-ylamino)thiazole-5-carboxamide], the half-inhibitory concentration (IC50) (in data set [4]; in data set [1]; in data set [2]; in data set [3]; in the data set with HDAC; at Lyn) was less than 100 nM each time.
`Cc1nc(Nc2ncc(C(=O)Nc3c(C)cccc3Cl)s2)cc(N2CCN(CCCCCCC(=O)NO)CC2)n1` [Compound 6, N-(2-chloro-6-methylphenyl)-2-(6-(4-(7-(hydroxyamino)-7-oxoheptyl)piperazin-1-yl)-2-methylpyrimidin-4-ylamino)thiazole-5-carboxamide]: the IC50 in data set [4] was less than 100 nM; in data set [1], less than 100 nM; in data set [2] it was less than 100 nM; in data set [3], less than 100 nM; with HDAC it was 100 to 1000 nM; against Lyn it was less than 100 nM.
Consider `Cc1nc(NCCNCC(=O)NO)cc(Nc2ncc(C(=O)Nc3c(C)cccc3Cl)s2)n1` [Compound 7, N-(2-chloro-6-methylphenyl)-2-(6-(2-(2-(hydroxyamino)-2-oxoethylamino)ethylamino)-2-methylpyrimidin-4-ylamino)thiazole-5-carboxamide], for which the IC50 in data set [1] is less than 100 nM; in data set [3], less than 100 nM; with HDAC, more than 10000 nM.
On to `Cc1nc(NCCNCCCCCC(=O)NO)cc(Nc2ncc(C(=O)Nc3c(C)cccc3Cl)s2)n1` [Compound 11, N-(2-chloro-6-methylphenyl)-2-(6-(2-(6-(hydroxyamino)-6-oxohexylamino)ethylamino)-2-methylpyrimidin-4-ylamino)thiazole-5-carboxamide], for which the IC50 (against Lck; in data set [4]; in data set [1]; in data set [2]; in data set [3]; with HDAC) was less than 100 nM in each case. The IC50 at Lyn was less than 100 nM.
Take `Cc1nc(NCCCCCC(=O)NO)cc(Nc2ncc(C(=O)Nc3c(C)cccc3Cl)s2)n1` [Compound 23, N-(2-chloro-6-methylphenyl)-2-(6-(6-(hydroxyamino)-6-oxohexylamino)-2-methylpyrimidin-4-ylamino)thiazole-5-carboxamide]: the IC50 (on Lck; in data set [4]; in data set [1]; in data set [2]; in data set [3]; with HDAC) was less than 100 nM each time. This compound also registered an IC50 against Lyn of less than 100 nM.
Usually melting point stands for the temperature of the solid-liquid transition. Regarding `Cc1nc(NCCCCCCC(=O)NO)cc(Nc2ncc(C(=O)Nc3c(C)cccc3Cl)s2)n1` [Compound 24, N-(2-chloro-6-methylphenyl)-2-(6-(7-(hydroxyamino)-7-oxoheptylamino)-2-methylpyrimidin-4-ylamino)thiazole-5-carboxamide], the melting point is 150.7 °C (dec.). Also, at Lck, the half-maximal inhibitory concentration (IC50) is less than 100 nM. In data set [4], this compound yielded an IC50 of less than 100 nM. This compound also displayed an IC50 in data set [1] of less than 100 nM. For the same compound, the IC50 in data set [2] was less than 100 nM. In data set [3], the IC50 is less than 100 nM. In the data set on HDAC, this compound gave an IC50 of less than 100 nM. At Lyn, the IC50 is less than 100 nM.
In the case of `Cc1nc(N)cc(N(CC(=O)NO)c2ncc(C(=O)Nc3c(C)cccc3Cl)s2)n1` [Compound 30], the IC50 in data set [1] was 100 to 1000 nM; in data set [3], 100 to 1000 nM; in the data set with HDAC it was more than 10000 nM.

(Values after patent US8426419B2, “Tyrosine kinase inhibitors containing a zinc binding moiety” (Curis, Inc., priority 2006, dated 2013).)
